Results published in publication PMC4406947, “CALM Regulates Clathrin-Coated Vesicle Size and Maturation by Directly Sensing and Driving Membrane Curvature” (Developmental Cell, 2015).

Assays:
CALM ANTH(ΔH0) = target: T1, CALM ANTH(ΔH0) (Homo sapiens, UniProt Q13492); assay: liposome-based SPR (BIAcore […]); format: binding; settings: PtdIns4,5P2-containing liposomes, not free lipid; 170 mM salt
T1 construct: gene PICALM; recombinant ANTH domain lacking the N-terminal amphipathic helix AH0 (residues 1-18); construct details in supplement; clone could be rat Picalm
T1 sequence (Q13492 19-289): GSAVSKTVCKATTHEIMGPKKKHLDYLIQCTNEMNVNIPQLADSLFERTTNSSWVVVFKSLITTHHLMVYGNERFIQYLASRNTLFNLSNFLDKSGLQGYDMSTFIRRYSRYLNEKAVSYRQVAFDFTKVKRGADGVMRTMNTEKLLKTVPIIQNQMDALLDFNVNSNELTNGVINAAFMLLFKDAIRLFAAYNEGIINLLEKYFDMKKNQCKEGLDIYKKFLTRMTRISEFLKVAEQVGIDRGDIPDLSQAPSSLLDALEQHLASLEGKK

CALM ANTH (CALM ANTH-WT) = target: T2, CALM ANTH (CALM ANTH-WT); assay: liposome-based SPR (BIAcore […]); format: binding, Homo sapiens; settings: PtdIns4,5P2-containing liposomes, not free lipid; 170 mM salt
T2 construct: gene PICALM; recombinant N-terminal ANTH domain including AH0, first 289 residues; construct details in supplement; clone could be rat Picalm (earlier ANTH constructs of this group)

PtdIns4,5P2
Kd (CALM ANTH(ΔH0)): 11.5 ± 1.1 µM | Kd (CALM ANTH (CALM ANTH-WT)): 1.5 µM
